15 compounds from patent publication US20090047379A1, “Benzamide Compounds Useful as High Potency Sweet Taste Enhancers” (priority 2007, published 2009) can be followed below.

Where a SMILES comes first, the peptide text is derived from it.

Common to all, as to type: in vivo, human
In experiment [1] the test system is sweet taste. The experiment is described as follows: Comparisons of taste quality and intensity, solutions in water (Example 12, Table I). The following applies: for Other taste attributes: in vivo. An excerpt:
Sweetness is rapid and fades quickly on rinsing of the mouth.

In experiment [2] the test system is sweet taste. Briefly: Structure activity example, tasting of analogues (Example 11). The following applies: when tasted. An excerpt:
During our invention process, we observed repeatedly that a small structural difference can cause dramatic change in the taste. For example, compound N-(2-methylcyclohexyl)-2,3,4,5,6-pentafluoro-benzamide is very sweet; moving the methyl group to the 4-position render the resulting N-(4-methylcyclohexyl)-2,3,4,5,6-pentafluoro-benzamide bitter; moving the methyl group to nitrogen render the resulting N-cyclohexyl-2,3,4,5,6-pentafluoro-N-methyl-benzamide tasteless.
There is however an underlying theme, that being that an amide functionality is important.

In experiment [3] the test system is sweet taste. Briefly: Sweetener blends with Ace-K or Sucralose, trained technical panel (Example 16). The following applies: for overall group rating: scale 1-9, 9 the best; for blend rating: scale 1 to 9. As for the experimental part:
A comparison of the synergistic effects the Benzamide, 2,3,4,5,6-Pentafluoro-N-(2-methylcyclohexyl)—(sweetener A) in combination with acesulfame-k, herein referred to as Ace-K and Sucralose was compared with the effects of Benzamide, 2,3,5,6-tetrafluoro-4-methyl-N-(2-methylcyclohexyl)—(sweetener B) in combination with the same commercial sweeteners. The samples were evaluated by a trained technical panel. The first sample was Ace-K at 100 ppm.
A similar evaluation with done with Sucralose as the commercial sweetener. An evaluation of Sucralose at 60 ppm was done in plain water. […] A comparison of the synergistic effects of sweetener A at 3 ppm in combination with Sucralose at 60 ppm was evaluated against sweetener B in the same combination. […] The blends were evaluated on a scale for 1 to 9.

Experiment [4] has as its system sweet taste. The experiment is described as follows: Sweetness enhancement of an 8 brix beverage, trained technical panel (Example 14). The following applies: 4 ppm in 8 brix beverage; for sweet intensity rating: ten point scale, nine most sweetness, zero no sweetness. As for the experimental part:
An 8 brix, the measurement of the mass ratio of dissolved sugar in a liquid, beverage was prepared to evaluate two sweeteners, 2,3,5,6-tetrafluoro-4-methyl-N-(2-methylcyclohexyl)benzamide-(sweetener A) and N-(2-methylcyclohexyl)-2,3,4,5,6 pentafluoro-benzamide)—(sweetener B). The objective was to determine if the sweeteners enhanced an 8 brix beverage to make it taste more similar to a 10 brix beverage. There were four samples evaluated an 8 brix beverage blank, sweetener A in 8 brix beverage, sweetener B in 8 brix beverage and a 10 brix beverage blank. Both the sweeteners were evaluated at 4 ppm. The beverage samples were evaluated by a trained technical panel. The panel evaluated the sweetness profile and the sweet intensity. The intensity was rated on a ten point scale with nine being the most sweetness and zero having no sweetness. […] The sweet intensity ratings were as follows (see Table 2) sample A rated 6, sample B rated 7, sample C rated 9 and sample D rated 9.

The subject of experiment [5] is sweet taste. The experiment is described as follows: Comparison of sweetness at 5 ppm in plain water (Example 13). How it is done:
Two molecules were compared to each other based on sweetness. Both molecules were evaluated at 5 ppm in plain water.

For experiment [6], the system named is sweet taste. Briefly: Sweetness in muffins, trained technical panel (second Example 14). The settings on record: 10 ppm in muffin; for sweetness intensity rating: scale 0-9, 9 most sweetness. How it is done: The sweeteners 2,3,5,6-tetrafluoro-4-methyl-N-(2-methylcyclohexyl)benzamide (sweetener A) and N-(2-methylcyclohexyl)-2,3,4,5,6 pentafluoro-benzamide -(sweetener B) were both evaluated in muffins. They were evaluated along with a blank muffin sample. Both sweeteners were evaluated at 10 ppm in the muffin. The samples were evaluated by a trained technical panel. They were asked to evaluate the profile and to give a rating between 0-9 on the sweetness intensity. The rating scale ranged from zero for no sweetness to 9 for the most sweetness. […] The samples were rating on sweet intensity (see Table 3). The samples ratings were as follows; sample A rated 5, sample B rated 6, sample C rated 8.

Experiment [7] relates to sweet taste. Briefly: Cola beverage containing Aspartame, trained technical panel (Example 15). The following applies: for sweetness profile rating: scale 0-9, 9 the best. How it is done:
The sweeteners Benzamide, 2,3,5,6-[…]-4-methyl-N-(2-methylcyclohexyl)—(sweetener A) and Benzamide, 2,3,4,5,6-pentafluoro-N-(2-methylcyclohexyl)—(sweetener B) were both evaluated in a cola beverage that contained Aspartame. The purpose of this experiment was to evaluate the sweeteners profile in a sweetener blend. There were three separate samples evaluated, see Table 3. The samples were evaluated by a trained technical panel. The sweetness profile was rated on a scale from 0-9, with 0 being the worst and 9 the best. The first sample, Sample A, containing only aspartame at 300 ppm was rated a 4. […] The second sample, Sample B, contained Aspartame at 300 ppm and sweetener A at 3 ppm. […] The rating for sample B was a 9 for sweetness. The third sample, sample C, contained Aspartame at 300 ppm and sweetener B at 3 ppm.

Where [8] appears, read: 3 ppm in combination with Ace-K at 100 ppm.
Setting [9] is: 3 ppm in combination with Sucralose at 60 ppm.
The mark [10] stands for this setting: 3 ppm with Aspartame 300 ppm in cola beverage.
Where [11] appears, read: Aspartame 300 ppm only in cola beverage.

Consider `O=C(N[C@H]1CCCc2ccccc21)c1ccoc1` (single isomer, unassigned) [1S isomer, reference compound], for which the Other taste attributes in the experiment on sweet taste [1] is given as 1S isomer is tasteless.
In the case of `CC1CCCCC1OC(=O)c1c(F)c(F)c(F)c(F)c1F` (stereo not shown) [2,3,4,5,6-pentafluorobenzoic acid 2-methylcyclohexyl ester], in the experiment with sweet taste [2], the taste result is reported as “burning sensation”.
Regarding `Cc1c(F)c(F)c(C(=O)NC(C)C(C)C)c(F)c1F` (stereo not shown) [2,3,5,6-tetrafluoro-4-methyl-N-(1,2-Dimethyl-propyl)benzamide, reference compound], the Other taste attributes entry in the experiment with sweet taste [1] is “Clean”.
In the case of `Cc1c(F)c(F)c(C(=O)NC2CCCCC2C)c(F)c1F` (stereo not shown) [2,3,5,6-tetrafluoro-4-methyl-N-(2-methylcyclohexyl)benzamide], in the experiment on sweet taste [3] (setting [8]), the taste comments entry was “delayed sweetness, astringency, not as strong a sweetness as the combination with sweetener A” and the overall group rating is recorded as 7. Moreover, in the experiment with sweet taste [3] (setting [9]), the taste comments result is recorded as “not as sweet as the combination with sweetener A, delayed sweetness” and the blend rating came to 7. Also, in the experiment on sweet taste [4], the sweetness profile comments entry is “sour and slightly sweeter than the 8 brix blank”; the sweet intensity rating is reported as 7. Further, the taste description result with sweet taste [5] was “mild vegetative, green and very bitter with some sugary notes”. Moreover, in the experiment on sweet taste [6], the profile description entry was “slightly sweet, not much difference in profile to the blank muffin sample” and the sweetness intensity rating came out at 6. Moreover, in the experiment with sweet taste [7] (setting [10]), the sweetness comments result is “sweetness was well rounded, lingered, and gave mouthfeel”; the sweetness profile rating was 9.
For the compound `CC1=CC(=O)[N-]S(=O)(=O)O1.[K+]` [Ace-K, acesulfame-k], the taste comments entry in the experiment with sweet taste [3] (Ace-K at 100 ppm alone) is “delayed sweetness, some off notes, astringent and bitter”.
On to `COC(=O)[C@H](Cc1ccccc1)NC(=O)[C@@H](N)CC(=O)O` [Aspartame] (H-Asp-Phe-OMe), for which, in the experiment on sweet taste [7] (setting [11]), the sweetness comments entry was “sweetness in the beverage spiked and then disappeared”; the sweetness profile rating is 4.
Take `Cc1c(F)c(F)c(C(=O)N[C@H](C)C2CCCCC2)c(F)c1F` [Compound 40, (R)-N-1-cyclohexylethyl-2,3,5,6-tetrafluoro-4-methyl-benzamide]: in the experiment with sweet taste [1], the Other taste attributes result was “Bitter at 20 ppm”. In addition, the Profile entry with sweet taste [1] (sweetness onset and duration relative to sucrose) is listed as “Poor sweet taste profile”.
`CC(C)C(C)NC(=O)c1c(F)c(F)c(F)c(F)c1F` (stereo not shown) [Compound 53, N-(1,2-dimethylpropyl)-2,3,4,5,6-pentafluoro-benzamide]: the Other taste attributes entry in the experiment with sweet taste [1] is listed as “Clean”.
`Cc1cc(C)c(C(=O)NC(C)C(C)(C)C)c(C)c1` (stereo not shown) [Example 2, 2,4,6-trimethyl-N-(1,2,2-trimethylpropyl)-benzamide]: the Other taste attributes entry with sweet taste [1] is “Clean”.
With `CC1CCCCC1NC(=O)c1c(F)c(F)c(F)c(F)c1F` (stereo not shown) [Example 6, N-(2-methylcyclohexyl)-2,3,4,5,6-pentafluoro-benzamide], in the experiment on sweet taste [3] (setting [8]), the taste comments entry is “strong sweetness upfront, bitter, enhanced bitterness in combination” and the overall group rating worked out at 9. In the experiment on sweet taste [3] (setting [9]), the taste comments result is “enhanced sweetness, more rounded, no bitter, very strong sweet profile” and the blend rating was found to be 9. In the experiment with sweet taste [4], the sweetness profile comments entry is “sweeter, more mouthwatering, had a slight astringent aftertaste and had a similar sweetness profile to the 10 brix beverage”; the sweet intensity rating is listed as 9. Besides, in the experiment on sweet taste [2], the taste entry was “very sweet”. The taste description result in the experiment with sweet taste [5] was “mouth coating, intense sweet, no bitter notes, and had a fast sweetness onset”. In addition, in the experiment on sweet taste [6], the profile description result was “sweeter, long lasting sweetness and mouthwatering”; the sweetness intensity rating is given as 8. Also, in the experiment on sweet taste [7] (setting [10]), the sweetness comments entry was “sweetness had more impact than Sample A, but not as intense as Sample B” and the sweetness profile rating is given as 6. Further, in the experiment on sweet taste [1] (1 ppm in water), the “equal in sweetness to sucrose” value is 1-2 % sucrose and the taste description result is reported as “sweetness is not immediate but builds after a few seconds but is very clean, lacking bitterness, off-taste or negative attribute”. In the experiment on sweet taste [1] (4% sucrose plus 1 ppm in water), the “rated as sweet as sucrose” value worked out at 8 % sucrose; the taste description result was “longer lasting and considered to be quite acceptable sweet character lacking bitterness”. The taste description result with sweet taste [1] (4% sucrose plus 5 ppm in water) is “too sweet and too long lasting”. For the same compound, in the experiment with sweet taste [1] (5 ppm in water), the “equal in strength to sucrose” value is listed as 4-6 % sucrose; the “sweet character lasts longer than sucrose” value is reported as “up to 10 times longer”; the taste description result was “sweetness is not immediate but is very clean, lacking bitterness, off-taste or negative attribute”. Moreover, the Other taste attributes result in the experiment on sweet taste [1] is reported as “Clean”. Moreover, the “effect in combination with sucrose” value with sweet taste [1] (low concentrations <4 ppm) is “synergistic effect with sucrose”.
As to `CC1CCC(NC(=O)c2c(F)c(F)c(F)c(F)c2F)CC1` (stereo not shown) [N-(4-methylcyclohexyl)-2,3,4,5,6-pentafluoro-benzamide], the taste result in the experiment on sweet taste [2] is “bitter”.
Regarding `O=C(N[C@@H]1CCCc2ccccc21)c1ccoc1` [N-[(1R)-1,2,3,4-tetrahydro-1-naphthalenyl]-3-furancarboxamide, reference compound], the Other taste attributes result in the experiment with sweet taste [1] was “Clean”.
Take `CN(C(=O)c1c(F)c(F)c(F)c(F)c1F)C1CCCCC1` [N-cyclohexyl-2,3,4,5,6-pentafluoro-N-methyl-benzamide]: the taste entry in the experiment on sweet taste [2] is “tasteless”.
As for `OC[C@H]1O[C@H](O[C@]2(CCl)O[C@H](CCl)[C@@H](O)[C@@H]2O)[C@H](O)[C@@H](O)[C@H]1Cl` [Sucralose], the taste comments entry with sweet taste [3] (Sucralose at 60 ppm alone in plain water) was “sweet onset, mouthwatering, sweetness lingers”.
On to `OC[C@H]1O[C@@](CO)(O[C@H]2O[C@H](CO)[C@@H](O)[C@H](O)[C@H]2O)[C@@H](O)[C@@H]1O` [Sucrose, reference compound], for which the taste description result in the experiment with sweet taste [1] (4% sucrose in water) is “moderate sweetness and mouthfeel”; in the experiment with sweet taste [1] (8% sucrose in water), “good level sweetness and excellent mouthfeel”.
